Test results: patent publication US20160090557A1, “SUBSTRATES COMPRISING MALODOR REDUCTION COMPOSITIONS” (The Procter & Gamble Company, priority 2014, published 2016)

Experiments:
[1] = Blocker Index (BI), expert graders, isovaleric acid malodorous swatch; design: key: BI odor strength 0 (lowest, clean swatch) to 3 (highest)
Excerpt: (§1) Blocker materials suitable for use in consumer products of the present invention are chosen for their ability to decrease malodor, while not interfering with perception of a fragrance. Material selection is done by assigning two indices to a test sample material from two reference scales in order to rank odor strengths. The two reference scales are the Fragrance Fidelity Index (FFI) scale and the Blocker Index (BI) scale. The FFI ranks the ability of the test sample material to impart a perceivable odor which could cause interference when combined with another fragrance and the BI ranks the ability of the test sample material to reduce malodor perception. The two methods for assigning the indices to a test sample on the FFI and the BI reference scales are given below.
(§2) The first step in the method for assigning a BI to a test sample material on the BI reference scale is to create the BI reference swatches. […] Fabric swatches for this test are white knit polycotton (4 inch×4 inch) swatches from EMC ordered as PC 50/50. The supplier is instructed to strip the swatches first, stripping involves washing twice with a fragrance-free detergent and rinsing three times.
The BI scale contains one clean swatch with no malodor applied. […] These solutions are pipetted to the middle of the swatches. […] After drying for 30 minutes in a vented hood, the swatches are wrapped in aluminum foil to prevent odor contamination to the treated swatch. A clean untreated swatch is also included as the lowest anchor point of reference for malodor strength on the BI scale. The BI reference scale swatches should be used within 0.5 to 12 hours and discarded after 12 hours. The swatches are used as scale anchor points when graders evaluate a test sample(s) and are assigned a Blocker Index (BI) as show in Table 12.
The perfumer/expert grader is asked to rank order swatches according to a scale between 0 and 3.
The reference swatches represent the 0, 1, 2, and 3 BIs on the BI reference scale, Table 12. The expert grader should familiarizes him/herself with the strength of the odor on the BI reference swatches by sniffing each one starting at 0 (the lowest odor strength) and ending at 3 (the highest odor strength). This should be done prior to evaluating the swatch treated with the test material.
To evaluate the BI, the test material is applied to a malodorous swatch to determine how well the test material blocks the malodor. […] After drying the malodorous swatch a known concentration of test material solution, between 1 ppm and 100 ppm is pipetted onto the malodorous swatch. […] It is sometimes necessary to evaluate several levels of the test material between about 1 and about 100 ppm to determine the BI.
At least two perfumers/expert graders are used to assign the BI to the test sample. […] The test sample swatch is assigned a BI at or between numbers on the BI in table.

[2] = Fragrance Fidelity Index (FFI), expert graders, treated fabric swatch against ethyl vanillin reference scale
Excerpt: as §1
as §2, with “assigning an FFI” for “assigning a BI”, “to the” for “to a”, “test samples” for “test sample material”, “the FFI” for “the BI”
Pipette 13 μL of each of the three solutions into the middle of a clean swatch resulting in about a 1 cm diameter of the solution in the middle of the swatch. This will create a sensory scale of three swatches with three different odor levels based on the concentration of the solution pipetted onto the swatch. After drying for 30 minutes in a vented hood, the swatches are wrapped in aluminum foil to prevent odor contamination to the treated swatch. A clean untreated swatch is also included as the lowest anchor point of reference for odor strength on the FFI scale. The FFI reference scale swatches should be used within 0.5 to 12 hours and discarded after 12 hours. The swatches are used as scale anchor points when graders evaluate a test sample(s) and are assigned a Fragrance Fidelity Index (FFI) as show in Table 7.
The perfumer/expert panel is asked to rank order swatches according to a scale between 0 and 3.
The reference swatches represent the 0, 1, 2, and 3 FFIs on the FFI reference scale, Table 9. The expert grader should familiarize them self with the strength of the odor on the FFI reference swatches by sniffing each one starting at 0 (the lowest odor strength) and ending at 3 (the highest odor strength). This should be done prior to evaluating the test sample material treated swatch.
A clean swatch is treated with 13 μL of a known concentration of a test sample material resulting in an about 1 cm of the solution on the clean swatch. Just like the reference swatches, the test sample material swatch is dried in a vented hood for 30 minutes and then wrapped in aluminum foil to prevent contamination. […]

[3] = test material Conc 10 ppm on isovaleric acid malodorous swatch
[4] = test material Conc 50 ppm on isovaleric acid malodorous swatch

Q: Which BI [1, 3] does the source give for `O=C1CCC2CCCCC2O1` (stereo not drawn) [3,4,4a,5,6,7,8,8a-octahydrochromen-2-one] here?
A: 2.0

Q: And the BI [1, 4]?
A: 2.0

Q: What does the source list for `CC1CCC2(C(C)C)CC(C)OC2C1` (stereo not drawn) [4,8-dimethyl-1-(methylethyl)-7-oxybiciclo [4.3.0]nonane]?
A: BI ([1]; Conc 10 ppm): 2.0; BI ([1]; Conc 50 ppm): 2.2; FFI ([2]; Conc 50 ppm): 0.3

Q: For `CC(C)(C)C1CCCCC1` [4-tert-butyl cyclohexane], which BI [1, 3] is on record?
A: 2.0

Q: What about the BI [1, 4] of the same compound?
A: 2.0

Q: What does the source list for `CCC(=O)OC1CC2C3C=CCC3C1C2(C)C` (stereo not drawn) [8,8-dimethyl-3a,4,5,6,7,7a-hexahydro-1H-4,7-methanoinden-6-yl propionate]?
A: BI ([1]; Conc 10 ppm): 1.5; BI ([1]; Conc 50 ppm): 2.2; FFI ([2]; Conc 10 ppm): 0; FFI ([2]; Conc 50 ppm): 0

Q: For `CCCCCCCCCCCCCCCC(=O)OC` [Material 109], which BI [1, 3] is on record?
A: 2.0

Q: For `CCCCCCCCCCCCO` [Material 174], which BI [1, 4] is on record?
A: 2.3

Q: Which BI [1, 3] does the source give for `CC(=O)OCCCCCCC(C)C` [Material 204] here?
A: 2.0

Q: And the BI [1, 4]?
A: 2.7

Q: Which results are given for `CC1(C)CCc2ccc(CCC=O)cc21` [Material 261, 3-(3,3-dimethyl-2,3-dihydro-1H-inden-5-yl)propanal]?
A: BI ([1]; Conc 10 ppm): 1.5; BI ([1]; Conc 50 ppm): 2.7; FFI ([2]; Conc 50 ppm): 0.5

Q: For `CC1(C)CCc2ccc(CCC=O)cc21` [Material 261], which BI [1, 3] is on record?
A: 1.8

Q: And the BI [1, 4]?
A: 1.3

Q: Which BI [1, 3] does the source give for `CC(=O)OC1CC2CC1C1CC=CC21` (stereo not drawn) [Material 281] here?
A: 2.0

Q: What about the BI [1, 4] of the same compound?
A: 2.0

Q: For `CCCCCCCCCCCC(=O)OCC` [Material 391], which BI [1, 4] is on record?
A: 2.2

Q: Which BI [1, 4] does the source give for `C=CC(C)=CCC=C(C)C` [Material 524] here?
A: 2.8

Q: What does the source list for `CCC(O)COC1CCCCC1C(C)(C)C` (stereo not drawn) [Material 677]?
A: BI [1, 3]: 2.3; BI [1, 4]: 2.0

Q: With `CC(CCO)CCc1ccccc1` (stereo not drawn) [Material 962] as the compound, how does the BI [1, 3] read?
A: 2.3

Q: What about the BI [1, 4] of the same compound?
A: 1.7

Q: For `CCOC(=O)OC1C(C)CCC(C)C1C` (stereo not drawn) [Material 1005], which BI [1, 4] is on record?
A: 2.6

Q: With `COC(=O)OC1CC/C=C\CCC1` (stereo not drawn) [Material 1139] as the compound, how does the BI [1, 3] read?
A: 2.0

Q: And the BI [1, 4]?
A: 2.7

Q: With `C=C1CCC2OC2(C)CCC2C1CC2(C)C` (stereo not drawn) [Material 1148] as the compound, how does the BI [1, 4] read?
A: 2.3

Q: Which results are given for `CC1(C)C2CCC3(C2)C1C(=O)CCC3(C)C` (stereo not drawn) [Material 1149]?
A: BI [1, 3]: 1.5; BI [1, 4]: 2.3

Q: For `CCCCCCCCCCCO` [Undecanol], which BI [1, 4] is on record?
A: 2.3

Q: For `CC(C)CC(=O)O` [isovaleric acid, reference compound], which “BI reference swatch grade, Ave” value ([1]; 2 μL 0.08% isovaleric acid, graders 1-5 (Table 10)) is on record?
A: 1.0

Q: What about the “BI reference swatch grade, single expert grader” value ([1]; stripped swatch with 2 μL 0.08% isovaleric acid) of the same compound?
A: 1.0

Q: And the “BI reference swatch grade, single expert grader” value ([1]; stripped swatch with 5 μL 0.08% isovaleric acid)?
A: 2.5

Q: What about the “BI reference swatch grade, single expert grader” value ([1]; stripped swatch with 20 μL 0.08% isovaleric acid) of the same compound?
A: 2.5
